Data from patent US7226945B2 (AstraZeneca AB, priority 2000, dated 2007).
pKd, pKi: −log10 of the molar value. Where two headings read alike, the source gives them in different places.

Key:
ER-β = molecular target: T1, ER-β (Homo sapiens, UniProt Q92731); test: Estrogen receptor binding measurement (competition with [125I]-estradiol), ER-β; tables head the values "FP β-ER Ki"
T1 construct: made in house; host or cells: cell-free: TNT T7 Quick-Coupled rabbit reticulocyte lysate (Promega L1170)
Method: (§1) Receptor protein was prepared by in vitro transcription and translation of these plasmids using the TNT T7 Quick-Coupled reticulocyte lysate system (Promega Cat.#L1170). […] Programmed lysate was then aliquotted and stored frozen at −80° C.
(§2) Compounds were tested in duplicate at half-log concentrations ranging from 10 pM to 3 μM. Compounds were prepared as 1 mM stocks in DMSO, then diluted in the binding-assay buffer (in mM: 20 HEPES, 150 NaCl, 1 EDTA, 6 monothioglycerol and 10 Na2MoO4,; 10% wt/vol glycerol, and pH=7.9) to a series of […] concentrated, 20 μL aliquots in a 96-well plate. Receptor aliquots were thawed on ice, and appropriately diluted (see below) in binding assay buffer. Diluted receptor (30 μL/each) was added to each well. […] Plates containing the final assay mixture were mixed on a shaker for 2 min and incubated overnight (˜16 h) at 4° C.
(§3) Receptor-bound and unbound radioligand was separated by filtration over sephadex columns. Columns (45 μL bed volume) were prepared by adding dry column media (Pharmacia Cat#G-25) to 96-well column templates (Millipore MultiScreen Plates Cat#MAHVN4510). Columns were then saturated with 300 μL of binding-assay buffer and stored at 4° C. Prior to use, stored columns were spun for 10 minutes at 2000 RPM, then washed twice with 200 μL of fresh binding buffer. The binding-assay mixtures (50 μL/each) were then applied to the columns, and an additional elution volume of 35 μL was immediately applied to the column. Receptor-bound radioligand was then eluted from the column by centrifugation for 10 minutes at 2000 RPM. A scintillation cocktail (145 μL) was added to the eluted radioligand/receptor complex, and radio-label was measured by liquid scintillation counting.
(§4) The volume of receptor-programmed reticulocyte lysate to be added to the binding assay was determined independently from two measurements made on each batch of receptor prepared. First, Kis were determined for standard compounds using a series of dilutions of the receptor preparation. Scatchard analysis of ligand binding affinity was performed at the receptor dilutions that produced reported Kis for these compounds and an acceptable signal:noise ratio (˜10).

ER-α = molecular target: T2, ER-α (Homo sapiens, UniProt P03372); test: Estrogen receptor binding measurement (competition with [125I]-estradiol), ER-α; tables head the values "FP α-ER Ki"
T2 construct: made in house; host or cells: cell-free: TNT T7 Quick-Coupled rabbit reticulocyte lysate (Promega L1170)
T2 sequence (P03372 1-595): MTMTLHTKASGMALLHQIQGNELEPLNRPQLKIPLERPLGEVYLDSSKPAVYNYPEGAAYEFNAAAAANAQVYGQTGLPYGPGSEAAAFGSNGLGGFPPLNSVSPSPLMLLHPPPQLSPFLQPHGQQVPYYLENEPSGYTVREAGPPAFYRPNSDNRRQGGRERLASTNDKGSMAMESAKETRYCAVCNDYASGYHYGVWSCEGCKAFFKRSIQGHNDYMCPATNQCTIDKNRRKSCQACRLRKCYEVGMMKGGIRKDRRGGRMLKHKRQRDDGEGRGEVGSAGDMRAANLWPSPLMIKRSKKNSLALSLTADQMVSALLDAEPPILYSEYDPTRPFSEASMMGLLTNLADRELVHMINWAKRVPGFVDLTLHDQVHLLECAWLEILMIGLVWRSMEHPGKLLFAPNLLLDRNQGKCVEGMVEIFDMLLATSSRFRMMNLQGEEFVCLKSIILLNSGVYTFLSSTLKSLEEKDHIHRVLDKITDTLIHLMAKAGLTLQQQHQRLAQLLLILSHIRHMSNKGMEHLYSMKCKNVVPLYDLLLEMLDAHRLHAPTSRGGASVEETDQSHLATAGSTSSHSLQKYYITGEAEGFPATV
Method: as §1, §2, §3, §4

ER = test: Scatchard analysis of ligand binding affinity on receptor preparations; conditions: Scatchard analysis at chosen receptor dilutions; receptor subtype not specified; read-out: KD for [125I]-estradiol
Method: as §4

T1 sequence (Q92731 54-530 limits assumed): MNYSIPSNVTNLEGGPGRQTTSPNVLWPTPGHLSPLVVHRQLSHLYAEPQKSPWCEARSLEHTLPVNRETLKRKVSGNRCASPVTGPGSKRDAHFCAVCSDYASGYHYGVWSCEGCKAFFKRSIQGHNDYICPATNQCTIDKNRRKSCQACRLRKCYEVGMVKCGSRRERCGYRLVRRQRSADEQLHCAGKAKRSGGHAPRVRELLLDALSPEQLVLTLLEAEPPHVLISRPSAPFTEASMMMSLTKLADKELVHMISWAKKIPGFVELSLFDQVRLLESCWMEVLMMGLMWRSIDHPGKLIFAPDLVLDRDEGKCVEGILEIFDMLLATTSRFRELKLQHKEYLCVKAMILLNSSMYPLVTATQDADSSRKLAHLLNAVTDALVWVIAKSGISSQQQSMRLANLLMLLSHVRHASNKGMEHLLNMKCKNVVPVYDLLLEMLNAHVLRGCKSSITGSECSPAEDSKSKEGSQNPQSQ

Structure (SMILES)	Selectivity (ER-β; ER-α Ki / ER-β Ki)	pKi (ER-β; read-out: FP β-ER Ki)	pKi (ER-α; read-out: FP α-ER Ki)	FP Sel. Ratio (ER-β; ER-α Ki / ER-β Ki)	pKi (ER-β; LOQ = 0.01 nM, upper limit 1000 nM, read-out: FP ER-β Ki)	pKi (ER-α; LOQ = 0.01 nM, upper limit 1000 nM, read-out: FP ER-α Ki)	pKd (ER)
Cc1cc(O)ccc1-c1coc2cc(O)cc(Cl)c2c1=O [Example 3, 5-chloro-7-hydroxy-3-(4-hydroxy-2-methylphenyl)-4-oxo-4H-1-benzopyran]	18	7.30	6.05				
O=c1c(-c2ccc(O)cc2)coc2cc(O)cc(F)c12 [Example 4, 5-Fluoro-7-hydroxy-3-(4-hydroxyphenyl)-4-oxo-4H-1-benzopyran]	>56	7.41	< 5.66				
N#Cc1cc(O)cc2occ(-c3ccc(O)cc3)c(=O)c12 [Example 7, 5-Cyano-7-hydroxy-3-(4-hydroxyphenyl)-4-oxo-4H-1-benzopyran]	>39	7.24	< 6.00				
CSc1cc(O)cc2occ(-c3ccc(O)cc3)c(=O)c12 [Example 8, 7-Hydroxy-3-(4-hydroxyphenyl)-5-methylthio-4-oxo-4H-1-benzopyran]	7	7.08	6.25				
Cc1oc2cc(O)cc(Cl)c2c(=O)c1-c1ccc(O)cc1 [Example 11]				32.8	7.34	≤ 6.00	
C[C@]12CC[C@@H]3c4ccc(O)cc4CC[C@H]3[C@@H]1C[C@@H](I)[C@@H]2O [[^125I]-estradiol, [^125I]-16α-iodo-3,17β-estradiol]							9.00 to 10.00

Further compounds by rising pKi (ER-β; read-out: FP β-ER Ki), results first:

Selectivity (ER-β; ER-α Ki / ER-β Ki)	pKi (ER-β; read-out: FP β-ER Ki)	pKi (ER-α; read-out: FP α-ER Ki)	FP Sel. Ratio (ER-β; ER-α Ki / ER-β Ki)	pKi (ER-β; LOQ = 0.01 nM, upper limit 1000 nM, read-out: FP ER-β Ki)	pKi (ER-α; LOQ = 0.01 nM, upper limit 1000 nM, read-out: FP ER-α Ki)	Structure (SMILES)	pKd (ER)
19	7.80	6.52				O=c1c(-c2ccc(O)cc2Cl)coc2cc(O)cc(Cl)c12 [Example 2, 5-Chloro-3-(2-chloro-4-hydroxyphenyl)-7-hydroxy-4-oxo-4H-1-benzopyran]	
139	8.37	6.22				O=c1c(-c2ccc(O)cc2)coc2cc(O)cc(Cl)c12 [Example 1, 5-Chloro-7-hydroxy-3-(4-hydroxyphenyl)-4-oxo-4H-1 benzopyran]	
38	8.41	6.83				O=c1c(-c2ccc(O)cc2)coc2cc(O)cc(I)c12 [Example 6, 7-Hydroxy-3-(4-hydroxyphenyl)-5-iodo-4-oxo-4H-1-benzopyran]	
90	8.55	6.60				O=c1c(-c2ccc(O)cc2)coc2cc(O)cc(Br)c12 [Example 5, 5-Bromo-7-hydroxy-3-(4-hydroxyphenyl)-4-oxo-4H-1-benzopyran]	
6.4	8.70	7.89				Oc1ccc(C2COc3cc(O)cc(Cl)c3C2)cc1 (stereo not shown) [Example 10, 5-Chloro-7-hydroxy-3-(4 hydroxyphenyl)chroman]	
35	8.74	7.21				O=c1oc2cc(O)cc(Cl)c2cc1-c1ccc(O)cc1 [Example 9, 5-Chloro-7-hydroxy-3-(4-hydroxyphenyl)coumarin]	
